The text below walks through data of patent US7635686B2, “Therapeutically useful triethyleneglycol cholesteryl oligonucleotides” (Bioniche Life Sciences, Inc., priority 2001, dated 2009).

The test system of data set [1] is MEG-01 cells. Nature of the data set: Cell cycle stage in MEG-01 cells (propidium iodide flow cytometry). The format is cell-based, human. The settings on record: 24 h. On the procedure:
To determine a cell cycle stage, various assays and procedures known to one skilled in the art may be employed. One such procedure uses a CYCLETEST™ PLUS DNA commercial kit (Becton Dickinson, Franklin Lakes, N.J.). Briefly, nuclei from cells are obtained by dissolving the cell membrane in a nonionic detergent, eliminating the cell cytoskeleton and nuclear proteins with trypsin, digesting the cellular RNA with RNase, and stabilizing the nuclear chromatin with spermine. Propidium iodide is added to the cell nuclei and their fluorescence was analyzed in a flow cytometer equipped with electronic doublet discrimination capability (FACSCalibur, Becton Dickinson, Franklin Lakes, N.J.). Accumulation of cells in G0/G1, early S (SE), mid S (SM), late S (SL) or G2/M phases of the cell cycle may be analyzed using MODFIT LT software (Verity Software House Inc., Topsham, Mass.), or other appropriate software.
Exponentially growing MEG-01 cells (2×10^5 cells/ml) were incubated for 24 h with 0 μM (control), 53 μM of SEQ ID NO:2 or 53 μM of SEQ ID NO:6. The cells were collected, centrifuged, and cell cycle stage was determined.
In general terms: Flow cytometry measures light scatter and fluorescence of single cells or particles in a stream.

Data set [2] deals with MEG-01 cells. Nature of the data set: MEG-01 cells inoculated subcutaneously in athymic nude mice. The format is in vivo. The settings on record: 1, 10, 100 mg/kg, after 4 weeks of treatment; versus saline and unconjugated sequences; dose-dependent. On the procedure: MEG-01 cells are inoculated subcutaneously into athymic nude mice as previously described (Takeo et al., Leukemia 7:1286, 1993). The mice are divided into 13 groups of 10 mice. On day 0, group 1 mice receive saline, group 2 mice receive 1 mg/kg SEQ ID NO:1, group 3 mice receive 10 mg/kg SEQ ID NO:1, group 4 mice receive 100 mg/kg SEQ ID NO:1, group 5 mice receive 1 mg/kg SEQ ID NO:2, group 6 mice receive 10 mg/kg SEQ ID NO:2, group 7 mice receive 100 mg/kg SEQ ID NO:2, group 8 mice receive 1 mg/kg SEQ ID NO:5, group 9 mice receive 10 mg/kg SEQ ID NO:5, group 10 mice receive 100 mg/kg SEQ ID NO:5, group 11 mice receive 1 mg/kg SEQ ID NO:6, group 12 mice receive 10 mg/kg SEQ ID NO:6 and group 13 mice receive 100 mg/kg SEQ ID NO:6 After 4 weeks of treatment, the mice are sacrificed and tumor mass is determined.

Data set [3] has as its system HIG-82 cells. Nature of the data set: HIG-82 synovial cell proliferation (MTT reduction). The format is cell-based, rabbit. The settings on record: 53 μM, 48 hours. On the procedure:
Adherent HIG-82 cells, a synovial cell line, were incubated at 10×10^5 cells/ml for 48 hours with 53 μM (final concentration) of SEQ ID NO:2, SEQ ID NO:3, SEQ ID NO:4, SEQ ID NO:6, SEQ ID NO:7, or SEQ ID NO:8. Cellular proliferation was measured using dimethylthiazol-diphenyl-tetrazolium (MTT) reduction (Mosman et al., J. Immunol. Methods 65:55, 1983). MTT was measured at a wavelength of 570 nm using a multiple spectrophotometer reader (ELX800, Bio-TEK, Instruments Inc., Winooski, Vt.). The percentage of inhibition, calculated as […]
On the technique in general: Formazan colour is commonly taken as a measure of viable cells.

The subject of data set [4] is MEG-01 cells. Nature of the data set: Apoptosis by phosphatidylserine redistribution (FITC-annexin V flow cytometry) in MEG-01 cells. The format is cell-based, human. The settings on record: 48 hours; for Percentage of positive cells for phosphatidylserine (cells in apoptosis) in MEG-01 cells: untreated cells 12%; for Induction of apoptosis in MEG-01 cells (in words): translocation of phosphatidylserine, up to 53.0 μM. On the procedure: Redistribution of plasma membrane phosphatidylserine is a characteristic of cells undergoing apoptosis (Martin et al., J. Exp. Med., 182:1545, 1995). The redistribution of phosphatidylserine in the plasma membrane during apoptosis was measured by flow cytometry using FITC (fluorescein isothiocyanate)-conjugated annexin V (BD Pharmingen, San Diego, Calif.). MEG-01 cells, a human chronic myelogeneous leukemia cell line positive for the Philadelphia chromosome and having a BCR-ABL gene fusion, were incubated at 2.5×10^5 cells/ml for 48 hours with 5.3, 26.5 and 53.0 μM final concentrations of SEQ ID NO:1, SEQ ID NO:2, SEQ ID NO:5, SEQ ID NO:6 and cholesteryl-TEG phosphoramidite molecule. The percentage of cells in apoptosis after exposure to the SEQ ID NOs:1, 2, 5, 6, or cholesteryl-TEG phosphoramidite treatment is reported in Table 2. The percentage of apoptosis in untreated MEG-01 cells was 12%.

The test system of data set [5] is HIG-82 cells. Put plainly: Apoptosis by nuclear DNA fragmentation (TUNEL, flow cytometry) in HIG-82 cells. The format is cell-based, rabbit. The settings on record: 53 μM; for Percentage of cells containing DNA fragmentation (cells in apoptosis) in HIG-82 cells: 48 hours, TUNEL; for Induction of apoptosis in HIG-82 cells (in words): fragmented nuclear DNA. On the procedure:
Adherent HIG-82 cells were incubated at 1.0×10^5 cells/ml for 48 hours with 53 μM final concentration of SEQ ID NO:1, SEQ ID NO:2, SEQ ID NO:5 or SEQ ID NO:6. Since phosphatidylserine/annexin V detection of apoptosis was not reliable after adherent cell harvesting techniques, such as trypsinization (van Engeland, Cytometry, 31:1, 1998), apoptosis in HIG-82 cells was evaluated using flow cytometry by the detection of fragmented DNA by terminal deoxynucleotidyl transferase enzyme-mediated bromodeoxyuridine triphosphate-biotin nick end-labeling (TUNEL) using a commercial assay (APO-BRDU™ kit; BD Pharmingen). The percentage of cells containing nuclear DNA fragmentation was determined. After 24 hours, untreated HIG-82 cells were essentially negative for nuclear DNA fragmentation.

For data set [6], the system named is Streptococcal cell wall-induced arthritis. Put plainly: Streptococcal cell wall-induced arthritis in rats. It counts as in vivo, LEW/N rats. The settings on record: 1, 10, 100 mg/kg with SCW, monitored daily for two weeks; versus SCW alone and unconjugated sequences; dose-dependent. On the procedure: Streptococcal cell wall-induced arthritis in LEW/N rats resembles a localized neoplasm consisting of, in part, of a proliferative and invasive population of fibroblast-like synovial cells (Yocum et al., Am. J. Pathol. 132:38, 1988). The arthritis is induced in LEW/N rats by intra-articular injection of streptocococcal cell wall (SCW) from group A Streptococcus pyogenes. The rats are divided into 13 groups of 10 rats. On day 0, group 1 rats receive SCW, group 2 rats receive SCW+1 mg/kg SEQ ID NO:1, group 3 rats receive SCW+10 mg/kg SEQ ID NO:1, group 4 rats receive SCW+100 mg/kg SEQ ID NO:1, group 5 rats receive SCW+1 mg/kg SEQ ID NO:2, group 6 rats receive SCW+10 mg/kg SEQ ID NO:2, group 7 rats receive SCW+100 mg/kg SEQ ID NO:2, group 8 rats receive SCW+1 mg/kg SEQ ID NO:5, group 9 rats receive SCW+10 mg/kg SEQ ID NO:5, group 10 rats receive SCW+100 mg/kg SEQ ID NO:5, group 11 rats receive SCW+1 mg/kg SEQ ID NO:6, group 12 rats receive SCW+10 mg/kg SEQ ID NO:6, group 13 rats receive SCW+[…]. The joint inflammation is monitored daily for two weeks.

For data set [7], the system named is MCF-7 cells. Nature of the data set: MATRIGEL outgrowth after 1 hr pre-incubation, MCF-7. It counts as cell-based, human. The settings on record: MCF-7, 53 μM pre-incubation 1 hr, 3 days on MATRIGEL, FIG. 1. On the procedure:
(§1) Various in vitro and in vivo assays may be used to evaluate the influence of the extracellular microenvironment on behavior of normal cells and tumor cells. Such assays may employ MATRIGEL® (Becton Dickinson, Franklin Lakes, N.J.), which is a solubilized basement membrane preparation extracted from the Engelbreth-Holm-Swarm murine sarcoma.
(§2) MCF-7, MDA-MB-231 (MDA-231), Hs578T and Mpanc-96 cells were cultured separately in regular culture medium, trypsinized, and counted. 100×10^3 of MDA-231 cells, 100×10^3 of Hs578T cells, 150×10^3 of MCF-7 cells and 150×10^3 of Mpanc-96 cells were separately pre-incubated for 1 hr at 37° C. in a final concentration of 53 μM of SEQ ID NO:1, 53 μM of SEQ ID NO:5 or RCM, and plated on top of MATRIGEL®-coated plates (MATRIGEL® Basement membrane matrix coated cellware 24-well plate,) for 3 days. Plates were fixed with 10% formalin. Digital photographs of the cells in the 24-well plates were taken using a Nikon Coolpix 990 digital camera (Nikon Corporation, Tokyo, Japan) connected to a Nikon inverted microscope model TMS.

The subject of data set [8] is MDA-MB-231 (MDA-231) cells. Put plainly: MATRIGEL outgrowth after 1 hr pre-incubation, MDA-231. It counts as cell-based, human. The settings on record: MDA-231, 53 μM pre-incubation 1 hr, 3 days on MATRIGEL, FIG. 1 and FIG. 2. On the procedure: as §1, §2
(§3) MDA-MB-231 (MDA-231) and Hs578T were cultured in regular culture medium, trypsinized and counted. 100×10^3 of MDA-MB-231 cells or 100×10^3 of Hs578T cells, were separately pre-incubated for 1 hr at 37° C. in a final concentration of 53 μM of SEQ ID NO:4, 53 μM of SEQ ID NO:8 or RCM and plated on MATRIGEL®-coated plates for 3 days. Plates were fixed with 10% formalin. Digital photographs of the cells in the 24-well plates were taken using a Nikon Coolpix 990 digital camera (Nikon Corporation, Tokyo, Japan) connected to a Nikon inverted microscope model TMS.

For data set [9], the system named is Mpanc-96 cells. Put plainly: MATRIGEL outgrowth after 1 hr pre-incubation, Mpanc-96. The format is cell-based, human. The settings on record: Mpanc-96, 53 μM pre-incubation 1 hr, 3 days on MATRIGEL, FIG. 1. On the procedure: as §1, §2
Data set [10] deals with Hs578T cells. Nature of the data set: MATRIGEL outgrowth after 1 hr pre-incubation, Hs578T. The settings on record: 53 μM pre-incubation 1 hr, 3 days on MATRIGEL, FIG. 1 and FIG. 2. The format is cell-based, human. On the procedure: as §1, §2, §3

{TEG-Chol} = cholesteryl attached through a triethyleneglycol (TEG) spacer, added as cholesteryl-TEG phosphoramidite

“5′ OH-GGGAGG(TEG-cholesteryl) 3′ (3' {TEG-Chol}, sugars by position and backbone not given here) [SEQ ID NO:6, 5′-OH, 3′-TEG cholesteryl synthetic oligonucleotide]”: in data set [1] (53 μM), the “Induction of cell cycle arrest in MEG-01 cells (in words)” value is “capacity to induce cell cycle arrest at the SL+G2/M phase”. Also, the “% of cells in phase SM” value in data set [1] (MEG-01, 53 μM, untreated 10.8) came out at 6.5%. In addition, in [1] (MEG-01, 53 μM, untreated 17.8), the “% of cells in phase SL + G2/M” value stood at 41.9%. Further, in data set [1] (MEG-01, 53 μM, untreated 71.4), the “% of cells in phase G0/G1 + SE” value is reported as 51.6%. The Tumor mass result in [2] is on record as “less tumor mass”. Further, in data set [3], the “Inhibition of proliferation of synovial HIG-82 cells (in words)” value was “capacity to inhibit the cellular proliferation”. Also, the “Inhibition of HIG-82 cell proliferation, inhibition (%)” value in data set [3] (MTT) was 75%. Also, the “Percentage of positive cells for phosphatidylserine (cells in apoptosis) in MEG-01 cells” value was found to be 13% in data set [4] (5.3 μM), 22% in data set [4] (26.5 μM) and 39% in [4] (53.0 μM). In [4], the “Induction of apoptosis in MEG-01 cells (in words)” value is “capacity to induce apoptosis”. In addition, the “Percentage of cells containing DNA fragmentation (cells in apoptosis) in HIG-82 cells” value in data set [5] came to 18%. Moreover, in data set [5], the “Induction of apoptosis in HIG-82 cells (in words)” value is reported as “capacity to induce apoptosis”. In addition, the Joint inflammation result in [6] is on record as “less inflammation”.
For “5′ OH-GGGTGG(TEG-cholesteryl) 3′ [SEQ ID NO:5]”, the “Formation of 3-dimensional structures / cell morphology on MATRIGEL” value in data set [7], in data set [8], in data set [9] and in [10] was “prevented the formation of 3-dimensional structures” in each case. For the same substance, the Tumor mass entry in data set [2] was “less tumor mass”. For the same substance, the “Percentage of positive cells for phosphatidylserine (cells in apoptosis) in MEG-01 cells” value in [4] (5.3 μM) is on record as 12%; in [4] (26.5 μM) it was 27%; in data set [4] (53.0 μM), 42%. For the same substance, the “Induction of apoptosis in MEG-01 cells (in words)” value in data set [4] is “capacity to induce apoptosis”. Further, the “Percentage of cells containing DNA fragmentation (cells in apoptosis) in HIG-82 cells” value in data set [5] stood at 17%. Besides, in [5], the “Induction of apoptosis in HIG-82 cells (in words)” value is given as “capacity to induce apoptosis”. Further, in [6], the Joint inflammation result is listed as “less inflammation”.
